The text below walks through data of patent publication US11020405B2, “Method for prevention or treatment of diabetic complications” (KANGWON NATIONAL UNIVERSITY UNIVERSITY-INDUSTRY COOPERATION …, priority 2017, dated 2021).

One data set has as its system TGase. Kind of data set: Identification of receptor of midazolam through TGase activity analysis. It counts as cell-based, human. The note with it: HRECs. As for the experimental part: With reference to FIG. 11A, the HRECs of Test Example 1 were subjected to the respective treatments below, cultured for 2 hr, treated with 1 mM 5-(biotinamido)pentylamine, incubated for 1 hr, fixed with 3.7% formaldehyde, treated with 0.2% triton X-100, treated with a blocking solution containing 138 mM NaCl, 0.1% Tween 20 and 2% BSA dissolved in a 20 mM Tris (pH 7.6) buffer, incubated for 30 min, incubated with FITC-conjugated streptavidin (1:200, v/v) for 1 hr, and then measured using confocal microscopy to thus determine the fluorescence intensity of single cells.
As will be described below, flumazenil was used as a GABAA receptor antagonist and PK11195 was used as a TSOP receptor antagonist.
With reference to FIG. 11B, the HRECs of Test Example 1 were treated with 0 μM, 0.01 μM, 0.1 μM, 1 μM, 10 μM, 20 μM, and 50 μM flumazenil and 0 μM, 0.01 μM, 0.1 μM, 1 μM, 3 μM, 10 μM, and 30 μM PK11195, cultured for 1 hr, treated with 20 μM midazolam, cultured for 30 min, treated with 10 ng/ml VEGF, incubated for 10 min, treated with 1 mM 5-(biotinamido)pentylamine, incubated for 1 hr, fixed with 3.7% formaldehyde, treated with 0.2% triton X-100, treated with a blocking solution containing 138 mM NaCl, 0.1% Tween 20 and 2% BSA dissolved in a 20 mM Tris (pH 7.6) buffer, incubated for 30 min, incubated with FITC-conjugated streptavidin (1:200, v/v) for 1 hr, and then measured using confocal microscopy to thus determine the fluorescence intensity of single cells.

A short description of data set [1]: Body weight and blood glucose monitoring in diabetic mice. The format is in vivo, C57BL/6 mice. On the procedure: FIGS. 19A and 19B show the preventive effects of midazolam against hyperglycemia-induced endothelial apoptosis in the aortic endothelium of diabetic mice. Six-week-old male C57BL/6 mice were administered with streptozotocin (150 mg/kg body weight) to give diabetic mouse models. One week after streptozotocin injection, diabetic mice were administered midazolam (10 mg/kg) by intraperitoneal injection daily for 14 days. The body weight of mice were measure in normal (20.7±0.1 g), diabetic (17.1±0.1 g), and midazolam supplemented diabetic mice (17.0±0.3 g). Blood glucose levels were also monitored in normal (124.0±12.0 mg/dL), diabetic (509.0±1.0 mg/dL), and midazolam supplemented diabetic mice (515.7±3.4 mg/dL). Aorta of mice were dissected and cut longitudinally to expose the endothelium. And then aortic segments were fixed for 15 min with 1% (w/v) paraformaldehyde in PBS, followed by treatment for 30 min with 70% (v/v) ethanol on ice. Apoptotic cells were stained by terminal deoxynucleotidyl transferase dUTP nick end labeling (TUNEL) with nuclear counterstaining with DAPI and visualized by confocal microscopy in the aortic endothelium. Representative images of endothelial apoptosis in aorta are shown in additional FIG. 19A. Scale bar, 100 μm. The results of endothelial apoptosis quantitatively analyzed by measurement of TUNEL staining in the aorta are shown in additional FIG. 19B (n=4 for normal and diabetic, n=6 for diabetic+Midazolam).
FIGS. 20A and 20B show the preventive effects of midazolam against hyperglycemia-induced renal vascular leakage in diabetic mice. Six-week-old male C57BL/6 mice were administered with streptozotocin (150 mg/kg body weight) to give diabetic mouse models. Two weeks after streptozotocin injection, diabetic mice were administered 10 mg/kg midazolam by intraperitoneal injection daily for 2 days, and vascular leakage was investigated. The body weight of mice were measure in normal (19.9±0.3 g), diabetic (17.7±0.3 g), and midazolam supplemented diabetic mice (17.7±0.3 g). Blood glucose levels were also monitored in normal (123.5±6.5 mg/dL), diabetic (505.0±89.0 mg/dL), and midazolam supplemented diabetic mice (500.3±63.3 mg/dL). The mice were anesthetized with 3% isoflurane, and 1.25 mg of FITC-dextran was injected into the right ventricle of each mouse and allowed to circulate for 5 min. […] The results of vascular leakage quantitatively analyzed by measuring the fluorescence intensity of FITC-dextran in the kidneys are shown in additional FIG. 20B. […]
FIGS. 21A and 21B show the preventive effects of midazolam against hyperglycemia-induced pulmonary vascular leakage in diabetic mice. […] Blood glucose levels were also monitored in normal (123.5±6.5 mg/dL), diabetic (505.0±89.0 mg/dL), and midazolam supplemented diabetic mice (500.3±63.3 mg/dL). […]

A further data set has as its system B16F10 cells. Briefly: Hyperglycemia-induced cancer metastasis in lungs of diabetic mice (melanoma nodules). It counts as in vivo, C57BL/6 mice. The note with it: 10 mg/kg midazolam intraperitoneal daily for 14 days, B16F10 cells intravenously (FIG. 22). As for the experimental part: FIGS. 22A and 22B show the preventive effects of midazolam against hyperglycemia-induced cancer metastasis in the lungs of diabetic mice. Six-week-old male C57BL/6 mice were administered with streptozotocin (150 mg/kg) to give diabetic mouse models. One weeks after streptozotocin injection, diabetic mice were administered 10 mg/kg midazolam by intraperitoneal injection daily for 14 days, and diabetic and midazolam supplemented diabetic mice were intravenously injected with B16F10 cells (5×10^5) in PBS. The weight of mice were measure in diabetic (16.4±0.2 g) and midazolam supplemented diabetic mice (16.2±0.5 g). Blood glucose levels were also monitored in diabetic (511.0±10.0 mg/dL) and midazolam supplemented diabetic mice (515.7±3.4 mg/dL). Two weeks later, the mice were euthanized by cervical dislocation, and the lungs were removed and bleached in Fekete's solution (70% ethanol, 3.7% paraformaldehyde, 0.75 M glacial acetic acid). Representative images of melanoma metastasis in lungs are shown in additional FIG. 22A. The results of melanoma metastasis assessed by counting metastatic lung nodules under a dissection microscope are shown in additional FIG. 22B (n=2/group).

Turning to `Cc1ncc2n1-c1ccc(Cl)cc1C(c1ccccc1F)=NC2` [midazolam], the “TGase activity (VEGF-induced) compared to control” value in the data set on TGase (20 μM midazolam 10 min then 10 ng/ml VEGF, no washing (FIG. 11A)) is recorded as “no significant TGase activity increase was observed”. The “TGase activity (VEGF-induced, after washing)” value in the data set on TGase (20 μM midazolam 30 min, washing with serum-free medium, then 10 ng/ml VEGF (FIG. 11A)) is given as “TGase activity was increased”. Further, the body weight in data set [1] (Test Example 15: midazolam supplemented diabetic mice, 10 mg/kg intraperitoneal daily for 14 days) is 17.0 ± 0.3 g; in data set [1] (Test Example 16: midazolam supplemented diabetic mice, 10 mg/kg intraperitoneal daily for 2 days), 17.7 ± 0.3 g; in data set [1] (Test Example 17: midazolam supplemented diabetic mice, 10 mg/kg intraperitoneal daily for 2 days) it was 17.6 ± 0.3 g. The molecule also displayed a weight of mice in data set [1] (Test Example 18: midazolam supplemented diabetic mice, 10 mg/kg intraperitoneal daily for 14 days, B16F10 cells) of 16.2 ± 0.5 g. Also, in the data set with B16F10 cells, the “number of metastatic nodules in the lungs” value was “the number of metastatic nodules in the lungs of diabetic mice was suppressed”.
